Measurements from US20250289827A1, “MORPHIC FORMS OF A MUTANT BRAF DEGRADER AND METHODS OF MANUFACTURE THEREOF” (C4 THERAPEUTICS, INC., priority 2022, published 2025).
Converted amounts (≈) assume the structure as drawn. “Also recorded” adds a separate entry of the source.

Key:
[1] = tested on: BRAF V600E mutant A375-luciferase intracranial model; assay: Efficacy in A375-luciferase intracranial model; settings: for Survival rate: as of day 75
Method: For the efficacy study, agents were tested in A375 human melanoma cancer cell derived xenografts (CDX). […] The A375 tumor cells were maintained in vitro in DMEM medium supplemented with 10% fetal bovine serum and 1% Penicillin-Streptomycin at 37° C. in an atmosphere of 5% CO2 in air. The tumor cells were routinely subcultured twice weekly. The cells growing in an exponential growth phase were harvested and counted for tumor inoculation.
For this CNS study, A375 cells with a luciferase tag for tracking tumor cell signal, were injected intracranially into 6-8 week old female BALB/c nude mice. […] The mice were anaesthetized, restrained, and sterilized prior to surgery. […] A 2 mm hole was created to the right of the anterior fontanel and 0.5 mm above the coronal on the skull with a cranial drill. Cell suspensions in 20% Matrigel were mixed and aspirated into the injector carefully to avoid bubbles and wiped to avoid extracranial tumorigenesis. The needle was inserted vertically into the cranial hole and the cell mixture was slowly injected for two minutes and held for another minute to decrease the drainage of the cell suspension. The wound was closed, and a subcutaneous injection of 5 mg/kg Meloxicam was given to relieve the pain and continued for three days. The mice were monitored closely until they woke up after the surgery. After inoculation, the animals were checked daily for morbidity and mortality.
The administration of the test agents began three days after inoculation. […] Measurements for the presence of the A375 luciferase signal within the CNS were done with IVIS Lumina III machine. Images were collected twice weekly to follow the growth of the models. The tumor-bearing mice were weighed and intraperitoneally administered luciferin (Perkin Elmer Inc-122799) at a dosage of 150 mg/kg. After ten minutes, mice were pre-anesthetized with the mixture gas of oxygen and isoflurane. The bioluminescence value at fifteen minutes post luciferin injection was recorded as the final value and plotted. The endpoint for individual mice was reached when the mouse body weight decreased by 20% when compared to their starting weight.
The luciferase signal for the mice removed from study were not carried forward, so a sudden drop in luciferase signal over time is due to mice with a heavy tumor burden being terminated and their high luciferase signal not being carried forward.

[2] = tested on: patient-derived xenograft (PDX) of non-small cell lung carcinoma (NSCLC) with BRAF V600E mutation; assay: Efficacy in BRAF V600E NSCLC PDX model; settings: for Tumor response: day 28
[3] = Bulk stability of Compound 1 Form B (1 week stress); type: physicochemical; settings: for Bulk (XRPD) crystallinity / Bulk (XRPD) form / Color / Purity, Bulk (HPLC): Solid state
Method: Compound 1 Form B was placed at 25° C./92% RH in an open container, at 40° C./75% RH in an open container and at 60RC in a closed container for 1 week. Samples after the stress were characterized by XRPD and HPLC and inspected for color change.

[4] = Solubility in aqueous pH buffers and bio-relevant fluids at 37° C.; type: physicochemical; settings: for Solubility 2 h / Solubility 24 h: LOQ: 1.5 μg/mL; for solubility at 2 h / solubility at 24 h: thermodynamic from solid
Method: Solubility of the Form B and sodium salt Form F was measured in 7 aqueous pH buffers and bio-relevant fluids including pH 1.2 HCl solution (0.2N), pH 4.5 acetate buffer (50 mM), pH 6.8 phosphate buffer (50 mM), pH 2.0 SGF, pH 6.5 FaSSIF-v1, pH 5.0 FeSSIF-v1 and water at 37° C. for 2 h and 24 h, respectively.
Accurate 20 mg of the Form B was weighed into a 20 mL glass vial. Then, 10 mL of solubility medium was added. The sodium salt Form F amount used was equivalent to 20 mg anhydrous form. Obtained suspensions were stirred at 37° C. at 400 rpm and sampled at 2 hours and at 24 hours, respectively. The samples were centrifuged at 37° C. at 4,000 rpm for 4 min. Supernatants were analyzed by HPLC and pH meter for solubility and pH value, respectively. Residual solids (wet cakes) from the 24 hours samples were also characterized by XRPD to determine physical form.

[5] = Plasma and brain pharmacokinetics in A375-luciferase intracranial model; parameters: species or system BALB/c nude mice; settings: mouse, in vivo
Method: To determine the level of CNS and plasma exposure of Compound 1 compared to encorafenib, a separate pharmacokinetics/pharmacodynamics (PK/PD) study was conducted. Mice were inoculated with luciferase tagged A375 cells as stated above. The tumors were left to establish and expand for 14 days before the study. […] Samples from 3 mice per treatment group were collected at 1, 12, 24, and 48 hours. To test the plasma samples, the mice were anesthetized, and blood was collected into a tube with EDTA-K2, centrifuged, transferred to a fresh tube, and stored frozen. Following blood collection, the mice were perfused for fifteen minutes, decapitated, and the brain was collected and frozen. The harvested plasma and brain were processed for pharmacokinetics analysis by LC/MS/MS with a concentration range of 1-1,000 ng/mL and pharmacodynamics analysis by Western Blot. The concentrations of Compound 1 and encorafenib found in the plasma is shown in FIG. 42, and the concentration found in the brain is shown in FIG. 43.

[6] = 25° C./92% RH, open container, 1 week
[7] = 40° C./75% RH, open container, 1 week
[8] = 60° C., tight container, 1 week
[9] = pH 4.5 acetate buffer (50 mM), 37° C.
[10] = pH 6.8 phosphate buffer (50 mM), 37° C.
[11] = simulated gastric fluid, SGF, pH 2.0, 37° C.
[12] = simulated gastric fluid, pH 1.2 HCl solution (0.2N), 37° C.

Structure (SMILES): COC(=O)N[C@@H](C)CNc1nccc(-c2cn(C(C)C)nc2-c2cc(Cl)cc(NS(C)(=O)=O)c2F)n1 [encorafenib]
- Survival (average) ([1]; 35 mg/kg PO QD, vehicle median survival 18 days): 46 days

Structure (SMILES): CC(C)(C)c1nc(-c2cccc(NS(=O)(=O)c3c(F)cccc3F)c2F)c(-c2ccnc(N)n2)s1 [dabrafenib]
- Status by day 28 ([2]; dabrafenib 100 mg/kg PO QD plus trametinib 0.1 mg/kg PO QD): reached tumor burden endpoint
- Status by day 28 ([2]; single agent, trametinib 0.1 mg/kg PO QD, dabrafenib 100 mg/kg PO QD): reached tumor burden endpoint

Structure (SMILES): CCN(C)S(=O)(=O)Nc1ccc(F)c(Oc2ccc3ncn([C@H]4COC5(CCN(C(=O)CC6(O)CCN(c7cc8c(cc7F)c(N7CCC(=O)NC7=O)nn8C)CC6)CC5)C4)c(=O)c3c2)c1C#N [Compound 1 Form B]
- Bulk (XRPD) crystallinity [3, 6]: No change in crystallinity
- Bulk (XRPD) form [3, 6]: Form B
- Color [3, 6]: No change of color
- Purity, Bulk (HPLC) [3, 6]: 99.2%
- Bulk (XRPD) crystallinity [3, 7]: No change in crystallinity
- Bulk (XRPD) form [3, 7]: Form B
- Color [3, 7]: No change of color
- Purity, Bulk (HPLC) [3, 7]: 99.3%
- Bulk (XRPD) crystallinity [3, 8]: No change in crystallinity
- Bulk (XRPD) form [3, 8]: Form B
- Color [3, 8]: No change of color
- Purity, Bulk (HPLC) [3, 8]: 99.3%
- Bulk (XRPD) form ([3]; photo (visible light, 1.2 million lux-hrs)): Form B
- Bulk stability (purity, crystal form, crystallinity) ([3]; one week, 25° C./92% RH open, 40° C./75% RH open, 60° C. tight container): excellent chemical and physical stability without any changes in purity, crystal form and crystallinity; also recorded: excellent chemical and physical stability without any changes in purity, crystal form and/or crystallinity
- pH of supernatant 24 h ([4]; FaSSIF-v1, pH 6.5, 37° C.): pH = 6.5
- Solubility 2 h ([4]; FaSSIF-v1, pH 6.5, 37° C.): <LOQ
- Solubility 24 h ([4]; FaSSIF-v1, pH 6.5, 37° C.): <LOQ
- pH of supernatant 24 h ([4]; FeSSIF-v1, pH 5.0, 37° C.): (pH = 5.0)
- pH of supernatant 24 h ([4]; SGF, pH 2.0, 37° C.): (pH = 2.1)
- pH of supernatant 24 h ([4]; Water, 37° C.): (pH = 7.0)
- Solubility 2 h ([4]; Water, 37° C.): <LOQ
- pH range of morphic form stability in aqueous media ([4]; aqueous media): 1.2 to 7.0
- pH dependence of solubility ([4]; aqueous media, 37° C.): pH dependent solubility
- pH of supernatant 24 h ([4]; pH 1.2 HCl solution (0.2N), 37° C.): (pH = 0.9)
- pH of supernatant 24 h [4, 9]: (pH = 4.5)
- Solubility 2 h [4, 9]: <LOQ
- Solubility 24 h [4, 9]: <LOQ
- pH of supernatant 24 h [4, 10]: (pH = 6.8)
- Solubility 2 h [4, 10]: <LOQ
- Solubility 24 h [4, 10]: <LOQ
- Form change after solubility test ([4]; residual solids, 24 hours, XRPD): no form change
- solubility at 2 h [4, 11]: 3.8 µg/mL (≈ 3.97 µM)
- solubility at 24 h [4, 11]: 5.2 µg/mL (≈ 5.43 µM)
- solubility at 2 h [4, 12]: 11.7 µg/mL (≈ 12.2 µM)
- solubility at 24 h [4, 12]: 28 µg/mL (≈ 29.2 µM)
- solubility at 2 h ([4]; FeSSIF-v1, pH 5.0, 37° C.): 4.8 µg/mL (≈ 5.01 µM)
- solubility at 24 h ([4]; FeSSIF-v1, pH 5.0, 37° C.): 6.7 µg/mL (≈ 6.99 µM)
- solubility at 24 h ([4]; Water, 37° C.): 4.6 µg/mL (≈ 4.8 µM)

Structure (SMILES): CCN(C)S(=O)(=O)Nc1ccc(F)c(Oc2ccc3ncn([C@H]4COC5(CCN(C(=O)CC6(O)CCN(c7cc8c(cc7F)c(N7CCC(=O)NC7=O)nn8C)CC6)CC5)C4)c(=O)c3c2)c1C#N [Compound 1, (3R)-3-[6-[2-cyano-3-[[ethyl(methyl)sulfamoyl]amino]-6-fluorophenoxy]-4-oxoquinazolin-3-yl]-8-[2-[1-[3-(2,4-dioxo-1,3-diazinan-1-yl)-5-fluoro-1-methylindazol-6-yl]-4-hydroxypiperidin-4-yl]acetyl]-1-oxa-8-azaspiro[4.5]decane]
- Tumor response ([2]; 10 mg/kg PO BID plus trametinib 0.1 mg/kg PO QD): tumor regression
- Tumor response ([2]; 10 mg/kg PO BID, without trametinib): tumor regression
- Survival rate ([1]; 10 mg/kg PO BID): 50%
- Survival rate ([1]; 30 mg/kg PO BID): 87.5%
- Survival time compared to encorafenib ([1]; intracranial melanoma tumors): significant increase in survival time
- Bioluminescence signal (tumor burden) ([1]; relative to vehicle control or encorafenib treated mice): dramatically reduced the bioluminescence signal
- Blood brain barrier penetration [5]: high level of blood brain barrier penetration
